Patent publication US10611751B2, “Dopamine D1 receptor positive allosteric modulators” (Eli Lilly and Company, priority 2018, dated 2020)
“Also recorded” adds a separate entry of the source. Where two headings read alike, the source gives them in different places. Marks after values point to notes of the source that are not given here.

How the values were obtained:
human D1 receptor = human D1 receptor (Homo sapiens (Human), UniProt P21728); test: Human D1 Receptor PAM Assay (cAMP HTRF, potentiator mode with EC20 dopamine); type: cell-based; conditions: for EC50: HEK293 cells expressing human D1 receptor, 12 nM dopamine (EC20), cAMP, read-out: Abs EC50; for Emax: fitted top of curve, 0% = EC20 dopamine, 100% = 5 μM dopamine, read-out: % Top (% Potentiation)
Excerpt: The PAM activity of the compounds of the present invention may be measured essentially as described in Svensson et al., An Allosteric Potentiator of the Dopamine D1 Receptor Increases Locomotor Activity in Human D1 Knock-in Mices without Casusing Stereotypy or Tachyphylaxis. J. Pharmacol. Exp. Ther. (2017) 360:117-128.
More specifically, HEK293 cells that stably express the human D1 receptor (Accession number NM_000794) are generated by gene transduction using the pBABE-bleo retroviral vector and selected with Zeocin™ (InvivoGen). At approximately 80% confluency, the cells are harvested using TrypLE™ Express (Gibco), suspended in FBS plus 8% DMSO, and stored in liquid nitrogen. On the day of the assay, cells are thawed and resuspended in STIM buffer (Hanks Balanced Salt Solution supplemented with 0.1% BSA, 20 mM HEPES, 500 μM IBMX, and 100 μM ascorbic acid).
Test compound is serially diluted (1:2) with DMSO into assay plates (ProxiPlate-384 Plus, PerkinElmer) using acoustic dispensing (Labcyte) to provide 20 concentrations for full response curves. […] Plates are incubated at room temperature for a total reaction time of 60 min.
cAMP production is quantified using HTRF® detection (Cisbio) according to the manufacturer's instructions. Generally, lysis buffer containing anti-cAMP cryptate (5 μL) and D2-conjugate (from HTRF® kit) (5 μL) is added to the wells, plates are incubated for an additional 60-90 min, and the time-resolved fluorescence is detected using an EnVision™ plate reader (PerkinElmer). Fluorescence data is converted to cAMP concentrations using a cAMP standard curve and analyzing using a 4-parameter non-linear logistic equation (Genedata Screener, version 13.0.5-standard). For potentiator mode concentration-response curves, results are expressed as percent of the window between a response at EC20 concentration of dopamine alone (normalized to 0%) and the maximum response to dopamine (defined by response to 5 μM dopamine, final concentration, normalized as 100%).
Absolute EC50 values are calculated based on the maximum and minimum responses of the control agonist (dopamine). The % Potentiation (% Top) is determined from the fitted top of the concentration response curve.

[1] = Fraction unbound in plasma and brain, determined in vitro (equilibrium dialysis); type: in vitro ADME
Protocol: Example 1 is orally dosed to male mouse from 1 mg/kg to 30 mg/kg in fed condition, and the plasma and brain concentration are determined 1.5 hr post-dose. The fraction unbound of the compound is determined in vitro as described previously (Zamek-Gliszczynski M J, Ruterbories K J, Ajamie R T, Wickremsinhe E R, Pothuri L, Rao M V, Basavanakatti V N, Pinjari J, Ramanathan V K, Chaudhary A K (2011) Validation of 96-well equilibrium dialysis with non-radiolabeled drug for definitive measurement of protein binding and application to clinical development of highly-bound drugs. J Pharm Sci 100: 2498-2507). The ratio (Kpuu) of unbound brain concentration (Cu,brain) vs. unbound plasma concertation (Cu,plasma) is determined as described previously (Raub T J, Wishart G N, Kulanthaivel P, Staton B A, Ajamie R T, Sawada G A, Gelbert L M, Shannon H E, Sanchez-Martinez C, De Dios A (2015) Brain Exposure of Two Selective Dual CDK4 and CDK6 Inhibitors and the Antitumor Activity of CDK4 and CDK6 Inhibition in Combination with Temozolomide in an Intracranial Glioblastoma Xenograft. Drug Metab Dispos. 43:1360-71). The data presented below for Example 1 are averages from 3 animals at each dose. “Con.” refers to concentration.
Example 8 was orally dosed to male mouse from 3 mg/kg to 60 mg/kg in fed condition, and the plasma and brain concentration was determined 1 hr post-dose. The fraction unbound of the compound was determined in vitro as described previously (Zamek-Gliszczynski M J, et al., Validation of 96-well equilibrium dialysis with non-radiolabeled drug for definitive measurement of protein binding and application to clinical development of highly-bound drugs, J. Pharm. Sci. (2011) 100: 2498-2507). The ratio (Kpuu) of unbound brain concentration (Cu,brain) vs. unbound plasma concertation (Cu,plasma) was determined as described previously (Raub T J, et al., Brain Exposure of Two Selective Dual CDK4 and CDK6 Inhibitors and the Antitumor Activity of CDK4 and CDK6 Inhibition in Combination with Temozolomide in an Intracranial Glioblastoma Xenograft. Drug Metab. Dispos. (2015) 43:1360-71). The data presented below for Example 8 are averages from 3 animals at each dose.

[2] = system: human D1 receptor knock-in mice; test: Basal (Habituated) Locomotor Activity; type: in vivo, mouse; conditions: for Basal Locomotor Activity (Total Ambulations for 60 min), mean: male human D1 knock-in mice, N = 8/group; for Effect on basal movement / locomotor activation (in words): oral dose response, habituated human D1 knock-in mice
Protocol: Locomotor activity is measured using an automated system to track movement in mice. Monitoring of mouse locomotor activity behaviors take place in transparent plastic shoebox cages having dimensions of 45×25×20 cm, with a 1 cm depth of wood chips for absorbent bedding, and covered with a ventilated filtered plastic cage top. Cages were placed in a rectangular frame containing a grid of 12 photocell beams in an 8×4 configuration (Kinder Scientific, Poway, Calif.) that is positioned 2.5 centimeters from the floor of the cage for the detection of body movements (ambulations) and recorded by computer.
Male human D1 receptor knock-in mice are placed in chambers and allowed to habituate to the chambers for 60 min. During the habituation period, the mice show decreasing locomotion over time, as expected. Following administration of a compound of the invention, animal movement is found to increase in a dose-dependent fashion.
The mice are randomly assigned to treatment groups. In the dose response study, each mouse is placed individually into one of the locomotor activity boxes for a 60 min. habituation period. The mice are then dosed orally using test compound in a 20% hydroxypropyl-betacyclodextrin vehicle and using a 10 mL/kg dose volume. After dosing, the mice are placed back into the LMA boxes and the total number of ambulations is recorded per 10 min interval for each mouse over a 60 min measurement period. Statistical analysis is carried out using one-way ANOVA followed by post-hoc analysis using Dunnett's Comparison test.

[3] = fraction unbound in brain, read-out: fu, brain
[4] = fraction unbound in plasma, read-out: fu, plasma

human D1 receptor, sequence (P21728 whole entry): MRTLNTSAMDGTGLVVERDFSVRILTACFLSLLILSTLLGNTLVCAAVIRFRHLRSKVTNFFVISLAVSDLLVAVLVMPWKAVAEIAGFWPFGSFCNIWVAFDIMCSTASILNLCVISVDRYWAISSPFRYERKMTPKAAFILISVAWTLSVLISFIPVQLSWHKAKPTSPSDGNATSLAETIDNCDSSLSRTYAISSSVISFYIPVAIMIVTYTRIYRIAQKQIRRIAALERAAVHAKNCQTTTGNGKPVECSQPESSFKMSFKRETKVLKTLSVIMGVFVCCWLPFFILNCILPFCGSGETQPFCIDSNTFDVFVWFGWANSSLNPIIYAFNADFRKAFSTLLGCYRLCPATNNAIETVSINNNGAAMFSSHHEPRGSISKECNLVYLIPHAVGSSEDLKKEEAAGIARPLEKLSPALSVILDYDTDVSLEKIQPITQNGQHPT

C[C@H]1c2cccc(-c3cnn(C)c3)c2C[C@H](CO)N1C(=O)Cc1c(Cl)cccc1Cl [Example 1, 2-(2,6-dichlorophenyl)-1-((1S,3R)-3-(hydroxymethyl)-1-methyl-5-(1-methyl-1H-pyrazol-4-yl)-3,4-dihydroisoquinolin-2(1H)-yl)ethan-1-one]
EC50 (human D1 receptor): 16.4 ± 3.18 nM | Emax (human D1 receptor): 91.4% | fraction unbound [1, 3]: 0.025 | fraction unbound [1, 4]: 0.027 | Basal Locomotor Activity (Total Ambulations for 60 min), mean ([2]; 1.0 mg/kg PO): 410 | Basal Locomotor Activity (Total Ambulations for 60 min), mean ([2]; 3.0 mg/kg PO): 490 | Basal Locomotor Activity (Total Ambulations for 60 min), mean ([2]; 6.0 mg/kg PO): 1517* | Basal Locomotor Activity (Total Ambulations for 60 min), mean ([2]; 10 mg/kg PO): 2426*** | Basal Locomotor Activity (Total Ambulations for 60 min), mean ([2]; 30 mg/kg PO): 3568**** | Effect on basal movement / locomotor activation (in words) [2]: increase basal movement in a dose dependent manner; also recorded: significant in vivo efficacy when orally administered at 6, 10, and 30 mg/kg PO

C[C@H]1c2cccc(-c3cn[nH]c3)c2C[C@H](CO)N1C(=O)Cc1c(Cl)cccc1Cl [Example 8, 2-(2,6-dichlorophenyl)-1-((1S,3R)-3-(hydroxymethyl)-1-methyl-5-(1H-pyrazol-4-yl)-3,4-dihydroisoquinolin-2(1H)-yl)ethan-1-one]
EC50 (human D1 receptor): 13.4 nM | Emax (human D1 receptor): 75.9% | fraction unbound [1, 3]: 0.01 | fraction unbound [1, 4]: 0.031 | Basal Locomotor Activity (Total Ambulations for 60 min), mean ([2]; 3.0 mg/kg PO): 335 | Basal Locomotor Activity (Total Ambulations for 60 min), mean ([2]; 10 mg/kg PO): 753 | Basal Locomotor Activity (Total Ambulations for 60 min), mean ([2]; 20 mg/kg PO): 3629* | Basal Locomotor Activity (Total Ambulations for 60 min), mean ([2]; 30 mg/kg PO): 3746** | Basal Locomotor Activity (Total Ambulations for 60 min), mean ([2]; 60 mg/kg PO): 4080 *** | Effect on basal movement / locomotor activation (in words) [2]: increase basal movement in a dose dependent manner
